Read-outs that look alike come from different tables or passages of the source.
How the values were obtained:
[1] = system: Mycoplasma hyopneumoniae (Mh) ST-11; assay: In vitro sensitivity test (liquid dilution method); format: cell-based; settings: 37°C, 7 days
Protocol: (§1) Survey of the sensitivity of the compound (I) to various strains of microorganisms was performed by a liquid dilution method […] an agar dilution method, in which the bacteria used were of animal origin and included the following strains (15 strains out of 11 bacteria): Chicken-origin strain: Mycoplasma gallisepticum (MG), Mycoplasma synoviae (MS), Hemophilus paragallinarum (H.pg) and Escherichia coli (E.coli); Pig-origin strain: Mycoplasma hyopneumoniae (Mh), Hemophilus pleuropneumonia (H.pp) and Bordetella bronchiseptica (B.br); Fish-origin strain: Pasteurella piscicida (P.pis) and Streptococcus sp (Str.sp); others: Escherichia coli (E. coli), Salmonella typhimurium (S.typhi) and Staphylococcus aureus (S.au).
(§2) Of these bacteria, the strains belonging to MG, MS and Mh were cultured at 37°C for 7 days by a liquid dilution method, of which the culture medium comprised: 12 % horse-serum added "PPLO" (agar manufactured by Difco) medium for MG; 12 % pig-serum, 0.01 % βNAD (nicotinamide adenine dinucleotide) added Frey medium for MS; 0.5 % lactoalbumin added Hank's solution, 10 % horse-serum, 0.5 % yeast extract (25 %) for Mh, and the agar dilution method was applied to the strains belonging to H.pg, H.pp, S.typhi, E.coli, S.au and B.br. Specifically, the H.pg strain was cultured in a 5 % chicken-serum added chicken bouillon medium and the H.pp strain was cultured in a heart infusion agar added with 10 % sheep defibered blood and 0.05 % βNAD. In case of the H.pg and P.pp strains, observation was made after cultivation at 37°C for 20 hours under 10 % CO₂. Mueller Hinton agar (Difco) was used for the strains belonging to S.typhi, E.coli, S.au and B.br, and observation was made after cultivation at 37°C for 20 to 24 hours. P.pis and Str.sp, both being of fish-origin, were respectively cultured at 25°C for 40 to 48 hours in a 1.5 % NaCl added heart infusion agar and in a sensitive disk medium.

[2] = system: Mycoplasma gallisepticum (MG) S6; assay: In vitro sensitivity test (liquid dilution method); format: cell-based; settings: 37°C, 7 days
Protocol: as §1, §2

[3] = system: Hemophilus pleuropneumonia (H.pp) M-1; assay: In vitro sensitivity test (agar dilution method); format: cell-based; settings: 37°C, 20 hours, 10 % CO₂
Protocol: as §1, §2

[4] = system: Staphylococcus aureus (S.au) 209P; assay: In vitro sensitivity test (agar dilution method); format: cell-based; settings: 37°C, 20 to 24 hours
Protocol: as §1, §2

[5] = system: Escherichia coli (E.coli) JC-2; assay: In vitro sensitivity test (agar dilution method); format: cell-based; settings: 37°C, 20 to 24 hours
Protocol: as §1, §2

[6] = system: Salmonella typhimurium (S.typhi) 13311; assay: In vitro sensitivity test (agar dilution method); format: cell-based; settings: 37°C, 20 to 24 hours
Protocol: as §1, §2

[7] = system: Hemophilus paragallinarum (H.pg) 221; assay: In vitro sensitivity test (agar dilution method); format: cell-based; settings: agar dilution, 37°C, 20 hours, 10 % CO₂
Protocol: as §1, §2

[8] = system: Escherichia coli (E.coli) E-17, chicken-origin strain isolated from the field; assay: In vitro sensitivity test (agar dilution method); format: cell-based; settings: 37°C, 20 to 24 hours
Protocol: as §1, §2

[9] = system: Hemophilus paragallinarum (H.pg) S-1; assay: In vitro sensitivity test (agar dilution method); format: cell-based; settings: agar dilution, 37°C, 20 hours, 10 % CO₂
Protocol: as §1, §2

[10] = system: Bordetella bronchiseptica (B.br) ABU-1; assay: In vitro sensitivity test (agar dilution method); format: cell-based; settings: 37°C, 20 to 24 hours
Protocol: as §1, §2

[11] = system: TS-resistant strain of MG; format: in vivo, chicken; settings: for Infectious index Left air sack + / Infectious index Left air sack ++ / Infectious index Left air sack +++ / Infectious index Left air sack - / Infectious index Right air sack + / Infectious index Right air sack ++ / Infectious index Right air sack +++ / Infectious index Right air sack -: count of fowl; for Infectious index Left air sack + / Infectious index Left air sack ++ / Infectious index Left air sack +++ / Infectious index Left air sack - / Infectious index Right air sack + / Infectious index Right air sack ++ / Infectious index Right air sack +++ / Infectious index Right air sack - / Number of fowl having air sack lesions / Number of infected fowl/Number of fowl tested: 9-days chicken; for Number of infected fowl/Number of fowl tested: 3.5 x 10³ CFU/fowl
[12] = system: Streptococcus sp (Str.sp) SNO6119; assay: In vitro sensitivity test; format: cell-based; settings: 25°C, 40 to 48 hours
Protocol: as §1, §2

[13] = system: Pasteurella piscicida (P.pis) No. 2; assay: In vitro sensitivity test; format: cell-based; settings: 25°C, 40 to 48 hours
Protocol: as §1, §2

TS-resistant MG = assay: Experimental MG infection to chicken, through bait; format: in vivo; settings: 9-days chicken, 6.6 x 10³ CFU/fowl, dissection 6th day after inoculation
[14] = oral 1.56 mg/kg, 2.2 x 10³ CFU/fowl
[15] = oral 6.25 mg/kg, 2.2 x 10³ CFU/fowl
[16] = oral 12.5 mg/kg, 2.2 x 10³ CFU/fowl
[17] = oral 25.0 mg/kg, 2.2 x 10³ CFU/fowl
[18] = oral 6.25 mg/kg, 1.7 x 10³ CFU/fowl
[19] = oral 12.5 mg/kg, 1.7 x 10³ CFU/fowl
[20] = oral 25.0 mg/kg, 1.7 x 10³ CFU/fowl

CNC[C@@]12CCC[C@@H]1CN(c1c(Cl)cc3c(=O)c(C(=O)O)cn(C4CC4)c3c1Cl)C2.Cl (relative stereo) [I-10, 7-[(1R*,5S*)-1-methylaminomethyl-3-azabicyclo[3.3.0]octan-3-yl]-1-cyclopropyl-6,8-dichloro-1,4-dihydro-4-oxo-3-quinoline carboxylic acid hydrochloride]
In vitro Sensitivity Test Mh ST-11 [1]: 0.05 µg/mL | In vitro Sensitivity Test MG S6 [2]: 0.00625 µg/mL | In vitro Sensitivity Test H.pp M-1 [3]: 0.78 µg/mL | In vitro Sensitivity Test S.au 209P [4]: 0.025 to 0.05 µg/mL | In vitro Sensitivity Test E.coli JC-2 [5]: 0.78 µg/mL | In vitro Sensitivity Test S.typhi 13311 [6]: 0.78 µg/mL | In vitro Sensitivity Test H.pg 221 [7]: 0.78 µg/mL | In vitro Sensitivity Test E.coli E-17 [8]: 0.39 µg/ml | In vitro Sensitivity Test H.pg S-1 [9]: 0.39 µg/mL | In vitro Sensitivity Test B.br ABU-1 [10]: 12.5 µg/mL | Infectious index Left air sack + [11, 14]: 0 | Infectious index Left air sack ++ [11, 14]: 0 | Infectious index Left air sack +++ [11, 14]: 0 | Infectious index Left air sack - [11, 14]: 4 | Infectious index Right air sack + [11, 14]: 2 | Infectious index Right air sack ++ [11, 14]: 0 | Infectious index Right air sack +++ [11, 14]: 1 | Infectious index Right air sack - [11, 14]: 1 | Infectious index Left air sack + [11, 15]: 1 | Infectious index Left air sack ++ [11, 15]: 0 | Infectious index Left air sack +++ [11, 15]: 0 | Infectious index Left air sack - [11, 15]: 4 | Infectious index Right air sack + [11, 15]: 2 | Infectious index Right air sack ++ [11, 15]: 2 | Infectious index Right air sack +++ [11, 15]: 0 | Infectious index Right air sack - [11, 15]: 1 | Infectious index Left air sack + [11, 16]: 0 | Infectious index Left air sack ++ [11, 16]: 0 | Infectious index Left air sack +++ [11, 16]: 0 | Infectious index Left air sack - [11, 16]: 5 | Infectious index Right air sack + [11, 16]: 0 | Infectious index Right air sack ++ [11, 16]: 0 | Infectious index Right air sack +++ [11, 16]: 0 | Infectious index Right air sack - [11, 16]: 5 | Infectious index Left air sack + [11, 17]: 0 | Infectious index Left air sack ++ [11, 17]: 0 | Infectious index Left air sack +++ [11, 17]: 0 | Infectious index Left air sack - [11, 17]: 5 | Infectious index Right air sack + [11, 17]: 0 | Infectious index Right air sack ++ [11, 17]: 0 | Infectious index Right air sack +++ [11, 17]: 0 | Infectious index Right air sack - [11, 17]: 5 | Number of fowl having air sack lesions [11, 14]: 3 | Number of fowl having air sack lesions [11, 15]: 4 | Number of fowl having air sack lesions [11, 16]: 0 | Number of fowl having air sack lesions [11, 17]: 0 | In vitro Sensitivity Test Str.sp SNO6119 [12]: 0.78 µg/mL | In vitro Sensitivity Test P.pis No. 2 [13]: 1.56 µg/mL

Cl.N[C@H]1CC[C@H]2CN(c3c(F)cc4c(=O)c(C(=O)O)cn(C5CC5)c4c3F)C[C@H]21 (relative stereo) [I-12]
In vitro Sensitivity Test Mh ST-11 [1]: <0.00625 µg/mL | In vitro Sensitivity Test MG S6 [2]: 0.00313 µg/mL | In vitro Sensitivity Test H.pp M-1 [3]: 0.2 µg/mL | In vitro Sensitivity Test S.au 209P [4]: 0.1 µg/mL | In vitro Sensitivity Test E.coli JC-2 [5]: 0.1 µg/mL | In vitro Sensitivity Test S.typhi 13311 [6]: 0.1 µg/mL | In vitro Sensitivity Test B.br ABU-1 [10]: 0.39 µg/mL | antimicrobial activity compared with ERFX ([11]; in vivo, po): two times more effective than ERFX | complete inihibition of the lesions in air sac at a concentration of ([11]; oral administration, MG-infected chicken): about 3.13 mg/kg | In vitro Sensitivity Test Str.sp SNO6119 [12]: 0.78 µg/mL | In vitro Sensitivity Test P.pis No. 2 [13]: 0.39 µg/mL

CCn1cc(C(=O)O)c(=O)c2cc(F)c(N3C[C@H]4CCC[C@@]4(CNC)C3)c(F)c21.Cl (relative stereo) [I-19, 7-[(1R*,5S*)-1-methylaminomethyl-3-azabicyclo[3.3.0]octan-3-yl]-1-ethyl-6,8-difluoro-1,4-dihydro-4-oxo-3-quinolinecarboxylic acid hydrochloride]
Number of infected fowl/Number of fowl tested (TS-resistant MG; bait 31.3 ppm/Day): 1/7 | Number of infected fowl/Number of fowl tested (TS-resistant MG; bait 62.5 ppm/Day): 0/7 | Number of infected fowl/Number of fowl tested (TS-resistant MG; bait 125 ppm/Day): 0/7 | In vitro Sensitivity Test Mh ST-11 [1]: 0.39 µg/mL | In vitro Sensitivity Test MG S6 [2]: 0.00625 µg/mL | In vitro Sensitivity Test H.pp M-1 [3]: 0.78 µg/mL | In vitro Sensitivity Test S.au 209P [4]: 0.05 µg/mL | In vitro Sensitivity Test E.coli JC-2 [5]: 0.39 µg/mL | In vitro Sensitivity Test S.typhi 13311 [6]: 0.78 µg/mL | Number of infected fowl/Number of fowl tested ([11]; oral 1.56 mg/kg): 3/5 | Number of infected fowl/Number of fowl tested ([11]; oral 3.13 mg/kg): 3/5 | Number of infected fowl/Number of fowl tested ([11]; oral 6.25 mg/kg): 1/5 | In vitro Sensitivity Test Str.sp SNO6119 [12]: 1.56 µg/mL | In vitro Sensitivity Test P.pis No. 2 [13]: 1.56 µg/mL

O=C(O)c1cn(C2CC2)c2c(F)c(N3CC4CCCC(=O)C4C3)c(F)cc2c1=O (stereo not drawn) [I-4]
In vitro Sensitivity Test Mh ST-11 [1]: ≦0.025 µg/ml | In vitro Sensitivity Test MG S6 [2]: 0.05 µg/mL | In vitro Sensitivity Test H.pp M-1 [3]: 0.2 µg/mL | In vitro Sensitivity Test S.au 209P [4]: 0.05 µg/mL | In vitro Sensitivity Test E.coli JC-2 [5]: 0.2 µg/mL | In vitro Sensitivity Test S.typhi 13311 [6]: 0.39 µg/mL | Infectious index Left air sack + [11, 18]: 1 | Infectious index Left air sack ++ [11, 18]: 0 | Infectious index Left air sack +++ [11, 18]: 0 | Infectious index Left air sack - [11, 18]: 3 | Infectious index Right air sack + [11, 18]: 1 | Infectious index Right air sack ++ [11, 18]: 1 | Infectious index Right air sack +++ [11, 18]: 0 | Infectious index Right air sack - [11, 18]: 2 | Infectious index Left air sack + [11, 19]: 0 | Infectious index Left air sack ++ [11, 19]: 0 | Infectious index Left air sack +++ [11, 19]: 0 | Infectious index Left air sack - [11, 19]: 5 | Infectious index Right air sack + [11, 19]: 0 | Infectious index Right air sack ++ [11, 19]: 0 | Infectious index Right air sack +++ [11, 19]: 0 | Infectious index Right air sack - [11, 19]: 5 | Infectious index Left air sack + [11, 20]: 0 | Infectious index Left air sack ++ [11, 20]: 0 | Infectious index Left air sack +++ [11, 20]: 0 | Infectious index Left air sack - [11, 20]: 5 | Infectious index Right air sack + [11, 20]: 0 | Infectious index Right air sack ++ [11, 20]: 0 | Infectious index Right air sack +++ [11, 20]: 0 | Infectious index Right air sack - [11, 20]: 5 | Number of fowl having air sack lesions [11, 18]: 2 | Number of fowl having air sack lesions [11, 19]: 0 | Number of fowl having air sack lesions [11, 20]: 0 | In vitro Sensitivity Test Str.sp SNO6119 [12]: 0.39 µg/mL | In vitro Sensitivity Test P.pis No. 2 [13]: 6.25 µg/mL

— patent EP0429304A2, “Pyridone-carboxylic acid derivatives and their use as veterinary medicines” (SHIONOGI SEIYAKU KABUSHIKI KAISHA trading under the name of …, priority 1989, dated 1991)
